From patent publication US6825348B2, “Antiviral compounds” (Academia Sinica, priority 2002, dated 2004)
In brackets after ≈: the same amount, converted by molar mass. Read-outs that look alike come from different tables or passages of the source.

What was measured:
[1] = tested on: Vero cells
[2] = Solubility in water (phosphate buffer, UV absorbance)
[3] = biological target: T1, calf mucosal adenosine deaminase (ADA, EC 3.5.4.4) (Bos taurus, UniProt P56658); test: Substrate activity and competitive inhibition of adenosine deaminase; format: biochemical
T1 sequence (P56658 1-363): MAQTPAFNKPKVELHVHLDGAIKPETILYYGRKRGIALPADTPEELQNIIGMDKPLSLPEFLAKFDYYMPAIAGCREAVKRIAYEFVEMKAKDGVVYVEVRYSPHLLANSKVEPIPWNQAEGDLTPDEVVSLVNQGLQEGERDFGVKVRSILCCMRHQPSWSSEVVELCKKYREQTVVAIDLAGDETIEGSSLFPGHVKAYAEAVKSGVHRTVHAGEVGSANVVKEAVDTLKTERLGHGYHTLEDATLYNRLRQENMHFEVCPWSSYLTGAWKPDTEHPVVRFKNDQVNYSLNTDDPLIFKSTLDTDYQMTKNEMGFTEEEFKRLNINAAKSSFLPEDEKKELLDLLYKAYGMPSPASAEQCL

[4] = tested on: Vero cell thymidine kinase; test: Phosphorylation of nucleosides by Vero cell thymidine kinase; format: biochemical
[5] = tested on: human cytomegalovirus (AD-169); test: Inhibition of HCMV cytopathogenicity in Vero cell culture; format: cell-based; details: Vero cell culture, 50% inhibition of cytopathogenicity, for 1:1 mixtures IC50 refers to known antiviral drugs
[6] = tested on: herpes simplex type 2 virus (HSV-2) (G); test: Inhibition of HSV-2 cytopathogenicity in Vero cell culture; format: cell-based; details: 50% inhibition of cytopathogenicity, for 1:1 mixtures IC50 refers to known antiviral drugs
[7] = tested on: thymidine kinase-positive (TK+) varicella-zoster virus (YS); test: Inhibition of TK+ VZV cytopathogenicity in Vero cell culture; format: cell-based
[8] = tested on: HeLa cells
[9] = tested on: thymidine kinase-deficient (TK−) varicella-zoster virus (YS/R); test: microbe, parasite or virus in culture; format: cell-based; details: for IC50 TK−VZV (YS/R): Vero cell culture, 50% inhibition of cytopathogenicity, for 1:1 mixtures IC50 refers to known antiviral drugs
[10] = tested on: herpes simplex type 1 virus (HSV-1) (KOS); test: Inhibition of HSV-1 cytopathogenicity in Vero cell culture; format: cell-based; details: for IC50 HSV-1 (KOS): Vero cell culture, 50% inhibition of virus-induced cytopathogenicity, mean of duplicates, for 1:1 (W/W) mixtures IC50 refers to known antiviral drugs
[11] = Lipophilicity, 1-octanol/water partition coefficient
[12] = biological target: HSV thymidine kinase (Human herpesvirus 1, UniProt P0DTH5); test: Phosphorylation of nucleosides by HSV thymidine kinase; format: biochemical
Sequence of HSV thymidine kinase (P0DTH5 whole entry, looked up): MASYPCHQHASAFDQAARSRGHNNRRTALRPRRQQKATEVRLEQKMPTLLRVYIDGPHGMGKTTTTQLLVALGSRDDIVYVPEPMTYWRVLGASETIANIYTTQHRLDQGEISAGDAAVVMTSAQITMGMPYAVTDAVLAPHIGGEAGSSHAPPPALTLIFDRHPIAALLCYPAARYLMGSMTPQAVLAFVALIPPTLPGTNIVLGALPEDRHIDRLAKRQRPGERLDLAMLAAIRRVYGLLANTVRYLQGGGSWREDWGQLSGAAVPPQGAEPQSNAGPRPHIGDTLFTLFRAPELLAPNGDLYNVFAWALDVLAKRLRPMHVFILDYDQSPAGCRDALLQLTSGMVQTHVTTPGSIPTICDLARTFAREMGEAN

[13] = biological target: PRPP synthetase (UniProt P0A717); test: PRPP synthetase reaction, conversion to diphosphates and inhibition of AMP phosphorylation; format: biochemical; details: compound as substrate of PRPP synthetase
Description: Enzymatic Conversion of Acyclic Nucleoside Phosphonates and Nucleotide 5′-Monophosphate Analog to Their Antivirally Active Diphosphates (Triphosphate Equivalents). Substrate affinities of acyclic nucleoside phosphonates 4, 20, 21, and dinucleotide analog 24 for PRPP synthetase as well as their inhibitory effect against the enzyme were evaluated according to the established procedures. See, e.g., Balzarini et al. (1991) J. Biol. Chem. 266: 8686-8689 and references cited therein. The assays were then terminated after 4 h by the addition of MeOH. HPLC on an anion-exchange Partisphere column was used to analyze the formation of […] 21pp, PMEApp, 4pp, 20pp, and 24pp.

[14] = tested on: HIV-2 (LAV-2); test: Inhibition of HIV-2 cytopathogenicity in MT4 cells; format: cell-based, human immunodeficiency virus; details: Human immunodeficiency virus 2; MT4 cells, average of duplicates; read-out: IC50 HIV-2 (LAV-2)
[15] = tested on: MT4 cells; test: Toxicity toward MT4 cells
[16] = tested on: moloney murine sarcoma virus (MSV); test: Inhibition of MSV cytopathogenicity in CEM cells (cell-protection assay); format: cell-based; details: Moloney murine sarcoma virus, CCRF-CEM; CEM cells, average of duplicates; read-out: IC50 MSV
[17] = tested on: HSV-1 (KOS); test: Anti-HSV-1 activity in vivo, HSV-1-induced mortality in NMRI mice; details: 6 days; for mean day of animal death / mean day of symptom initiation: terminated day 21; for responders at 100 mg/kg / responders at 150 mg/kg / responders at 250 mg/kg: Human alphaherpesvirus 1, ip, 504 h
[18] = LD50 and toxicity in mice, intraperitoneal
[19] = tested on: MSV; details: for mean day of animal death / percentage of MSV-infected mice alive at day 21 postinfection / percentage of MSV-infected mice without tumors at day 21 postinfection: two injections; for mean day of tumor initiation: two injections within two days
[20] = tested on: HIV-1 (IIIB); test: microbe, parasite or virus in culture; format: cell-based; details: Human immunodeficiency virus 1, IIIB; MT4 cells, average of duplicates; read-out: IC50 HIV-1 (IIIB)
[21] = tested on: CEM cells; test: Toxicity toward CEM cells
[22] = Vero cell culture, 50% inhibition of cytopathogenicity, for 1:1 mixtures IC50 refers to known antiviral drugs

Nc1ncnc2c1ncn2[C@@H]1O[C@H](CO)[C@@H](O)[C@@H]1O [ara A 3, 9-(β-D-arabinofaranosyl)adenine, reference compound]
Vero cell, concentration causing microscopically visible change or disruption in about 50% of the cell sheet [1]: 89 µg/mL | solubility in water ([2]; phosphate buffer 0.10 M, pH 6.8, agitated 20 h): 0.48 mg/mL (≈ 1800 µM) | rel. Vmax ([3]; compound as ADA substrate, relative to ara A 3 = 1.0): 1.0 | Km ([4]; apparent Km, 37° C., pH 7.5): 13 mM | rel. Vmax, Vero cell thymidine kinase ([4]; relative to thymidine = 1.0 × 10^2): <3.0 | IC50 HCMV (AD-169) [5]: 27 µg/mL (≈ 101 µM) | IC50 HSV-2 (G) [6]: >128 µg/mL | IC50 TK+VZV (YS) [7, 22]: >128 µg/mL | HeLa cell, concentration causing microscopically visible change or disruption in about 50% of the cell sheet [8]: 73 µg/mL | IC50 TK−VZV (YS/R) [9]: >128 µg/mL | IC50 HSV-1 (KOS) [10]: 8.8 µg/mL (≈ 32.9 µM) | log P (1-octanol/water) ([11]; P = [substrate]1-octanol/[substrate]H2O, phosphate buffer 0.10 M): −0.50 | rel. Vmax, HSV thymidine kinase [12]: <3.0 | effect on the rate of phosphorylation of acyclovir 2 in words ([12]; mixture with acyclovir 2 (w/w=1:1)): did not induce any increase

Nc1ncnc2ncn(COCCCl)c12 [Compound 12, 7-[(2-Chloroethoxy)methy]adenine]
Vero cell, concentration causing microscopically visible change or disruption in about 50% of the cell sheet [1]: 165 µg/mL | IC50 HCMV (AD-169) [5]: >128 µg/mL | IC50 HSV-2 (G) [6]: >128 µg/mL | IC50 TK+VZV (YS) [7, 22]: >128 µg/mL | HeLa cell, concentration causing microscopically visible change or disruption in about 50% of the cell sheet [8]: 169 µg/mL | IC50 TK−VZV (YS/R) [9]: >128 µg/mL | IC50 HSV-1 (KOS) [10]: >128 µg/mL

Nc1ncnc2c1ncn2[C@@H]1O[C@H](COP(=O)(O)O)[C@@H](O)[C@H]1O [AMP 21, adenosine 5′-monophosphate, reference compound]
Km [13]: 240 µM

Nc1nc2ncn(COCCCl)c2c(=O)[nH]1 [Compound 7, 7-[(2-Chloroethoxy)methy]guanine]
Vero cell, concentration causing microscopically visible change or disruption in about 50% of the cell sheet [1]: 145 µg/mL | IC50 HCMV (AD-169) [5]: >128 µg/mL | IC50 HSV-2 (G) [6]: >128 µg/mL | IC50 TK+VZV (YS) [7, 22]: >128 µg/mL | HeLa cell, concentration causing microscopically visible change or disruption in about 50% of the cell sheet [8]: 157 µg/mL | IC50 TK−VZV (YS/R) [9]: >128 µg/mL | IC50 HSV-1 (KOS) [10]: >128 µg/mL

COC1=C(OC)/C(=C/COP(=O)(O)COCCn2cnc3c(N)ncnc32)OC1=O [Compound 28, [1-(Adenin-9-yl-ethoxy)methyl]phosphono-6-yl-(Z)-4-(ethylidene)-2,3-dimethoxy-Δ^a,b-butenolide]
IC50 [14]: 1 µg/mL (≈ 2.27 µM) | Vero cell, concentration causing microscopically visible change or disruption in about 50% of the cell sheet ([1]; African green monkey): 170 µg/mL | MT4 cell, concentration reducing the number of viable uninfected cells by 50% [15]: 265 µg/mL | IC50 [16]: 0.93 µg/mL (≈ 2.11 µM) | solubility at 20 h ([2]; phosphate buffer, pH 6.8, aqueous buffer, thermodynamic from solid): 7420 µg/mL (≈ 16800 µM) | ADA substrate / inhibitor property in words [3]: neither a good substrate nor an inhibitor | protection against HSV-induced mortality ([17]; 100 mg/kg i.p.): same level of protection | mean day of animal death ([17]; 100 mg/kg/day i.p.): >21 days | mean day of symptom initiation ([17]; 100 mg/kg/day i.p.): >21 days | mean day of animal death ([17]; 150 mg/kg/day i.p.): >21 days | mean day of symptom initiation ([17]; 150 mg/kg/day i.p.): >21 days | mean day of animal death ([17]; 250 mg/kg/day i.p.): >21 days | mean day of symptom initiation ([17]; 250 mg/kg/day i.p.): >21 days | responders at 100 mg/kg ([17]; 100 mg/kg/day i.p., read-out: percentage of HSV-1-infected mice alive at day 21 postinfection): 100% | responders at 100 mg/kg ([17]; 100 mg/kg/day i.p., read-out: percentage of HSV-1-infected mice without symptoms at day 21 postinfection): 100% | responders at 150 mg/kg ([17]; 150 mg/kg/day i.p., read-out: percentage of HSV-1-infected mice alive at day 21 postinfection): 100% | responders at 150 mg/kg ([17]; 150 mg/kg/day i.p., read-out: percentage of HSV-1-infected mice without symptoms at day 21 postinfection): 100% | responders at 250 mg/kg ([17]; 250 mg/kg/day i.p., read-out: percentage of HSV-1-infected mice alive at day 21 postinfection): 100% | responders at 250 mg/kg ([17]; 250 mg/kg/day i.p., read-out: percentage of HSV-1-infected mice without symptoms at day 21 postinfection): 100% | LD50 ([18]; NMRI, mouse, in vivo, ip): 710 mg/kg | level up to which no toxicity was shown ([18]; mice, intraperitoneal): 400 mg/kg | mean day of animal death ([19]; 10 mg/kg/day i.p.): 18.9 ± 1.8 days | percentage of MSV-infected mice alive at day 21 postinfection ([19]; 10 mg/kg/day i.p.): (97%) | mean day of tumor initiation ([19]; 10 mg/kg/day i.p.): 14.0 ± 2.1 days | mean day of animal death ([19]; 20 mg/kg/day i.p.): >21 days | percentage of MSV-infected mice alive at day 21 postinfection ([19]; 20 mg/kg/day i.p.): (100%) | percentage of MSV-infected mice without tumors at day 21 postinfection ([19]; 20 mg/kg/day i.p.): (80%) | mean day of tumor initiation ([19]; 20 mg/kg/day i.p.): 17.9 ± 1.7 days | mean day of animal death ([19]; 50 mg/kg/day i.p.): >21 days | percentage of MSV-infected mice alive at day 21 postinfection ([19]; 50 mg/kg/day i.p.): (100%) | percentage of MSV-infected mice without tumors at day 21 postinfection ([19]; 50 mg/kg/day i.p.): (95%) | mean day of tumor initiation ([19]; 50 mg/kg/day i.p.): 18.4 ± 1.4 days | weight loss in surviving animals ([19]; MSV-infected NMRI mice, i.p.): about 2 g | IC50 ([5]; Human betaherpesvirus 5, AD169, read-out: IC50 HCMV (AD-169)): 5.4 µg/mL (≈ 12.2 µM) | IC50 [20]: 1.4 µg/mL (≈ 3.17 µM) | IC50 TK+VZV (YS) [7]: 2.0 µg/mL (≈ 4.53 µM) | HeLa cell, concentration causing microscopically visible change or disruption in about 50% of the cell sheet ([8]; human): 139 µg/mL | IC50 ([9]; Human alphaherpesvirus 3, Vero, read-out: IC50 TK−VZV (YS/R)): 2.4 µg/mL (≈ 5.44 µM) | IC50 ([10]; Human alphaherpesvirus 1, Vero, read-out: IC50 HSV-1 (KOS)): 3.7 µg/mL (≈ 8.38 µM) | logP at […] ([11]; 1-octanol/water (0.10 M phosphate buffer)): 2.09 | CEM cell, concentration reducing the number of viable uninfected cells by 50% [21]: 280 µg/mL
